Results on six compounds are retold here after patent publication US20030165575A1, “Methods and compositions for treatment and diagnosis of alzheimer disease and other disorders” (Research Foundation for Mental Hygeine, Inc., priority 1994, published 2003).

Test [1] addresses T1, PP-2B (Bos taurus, UniProt P48452).
T1 construct: PP-2B (holoezyme) was purified from bovine brain according to the method of Sharma et al; from tissue; host or cells: bovine brain
Put plainly: Effect of effectors on dephosphorylation of AD P-tau by PP-2B (immunoblot). In kind it is biochemical, bovine. Particulars: for Activity of PP-2B towards AD P-tau with divalent cation in the presence of Ca2+ and calmodulin: 1.0 mM CaCl2, 1.0 μM calmodulin plus 1.0 mM NiCl2, 1.0 mM MnCl2 or 10 mM MgCl2; for Activity of PP-2B towards AD P-tau with divalent cation in the presence of Ca2+ and calmodulin / Magnitude of dephosphorylation of AD P-tau by PP-2B with the cation alone compared to inclusion of Ca2+ and calmodulin: Tau-1 immunoblot; for Magnitude of dephosphorylation of AD P-tau by PP-2B with the cation alone compared to inclusion of Ca2+ and calmodulin: 1.0 mM MnCl2 or 1.0 mM NiCl2 alone; for Concentration of metal ion for maximal dephosphorylation of AD P-tau by PP-2B / Concentration of metal ion that activated the dephosphorylation of AD P-tau by PP-2B: in the presence of 1.0 mM Ca2+ and 1.0 μM calmodulin. As to the method:
Rabbit skeletal muscle PP-1 was purchased from Upstate Bioteehnology Inc., Lake Placid, N.Y. Rat brain PP-2A1 and PP-2A2 were kindly provided by Dr. S. Jaspers of University of Massachusetts. […] Phosphorylase and calmodulin were purchased from Sigma, St. Louis, Mo. […] Alkaline phosphatase-conjugated goat anti-mouse and anti-rabbit IgG were purchased from Bio-Rad, Hercules, Calif.
Unless otherwise stated, dephosphorylation of AD P-tau was carried out at 30° C. in 50 mM Tris, pH 7.0, 10 mM β-mecaptoethanol, 0.1 mg/ml BSA, 50 μg/ml AD P-tau and PP-1 PP-2A or PP-2B. The reaction was started by addition of enzyme and stopped by addition of 5 volumes of cold acetone. The precipitated protein samples were dissolved in sodium dodecyl sulfate-polyacrylamide gel electrophoresis (SDS-PAGE) sample buffer and heated at 95° C. for 4 min, followed by 10% SDS-PAGE. […] Antiserum 92e is a phosphorylation-independent antibody which recognizes both AD P-tau and normal tau.
For orientation: In western blotting, separated proteins are transferred to a membrane and probed.

The target in test [2] is T2, PP-2A2 (Rattus norvegicus, UniProt P63331). Put plainly: Effect of Mn2+, Mg2+ and polylysine on dephosphorylation of AD P-tau by PP-2A2. Particulars: 2.0 mM MnCl2, 2.0 mM MgCl2 or 10 μM polylysine versus 1.0 mM EDTA; Tau-1 immunoblot. The test is classed as biochemical. The arrangement: PP-2A1 and PP-2A2 were purified from rat brain basically as described by Cohen et al; tissue gift of Dr. S. Jaspers, University of Massachusetts; host or cells: rat brain. From the text:
(§1) Phosphorylase, calmodulin, and poly-L-lysine (molecular weight 4,000-15,000) were purchased from Sigma, St. Louis, Mo. […] L. 1. Binder, University of Alabama, Birmingham, Ala.; A. Van de Voorde, Innogenetics, Industriepark Zwijinaarde, Belgium; and S. Greenberg, Burke Medical Research Institute, White Plains, N.Y., respectively. SMI33, SMI31, SMI34, goat anti-mouse IgG and peroxidase-anti-peroxidase complex were purchased from Sternberger Monoclonals Inc., Baltimore, Md. Alkaline phosphatase-conjugated goat anti-mouse and anti-rabbit IgG were purchased from Bio-Rad, Hercules, Calif.
(§2) In some experiments, Mn^2+ in the reaction mixture was replaced by other effectors (see Figure legends). In the reaction mixture for PP-2B, MnCl2 was substituted with-1.0 mM NiCl2, 1.0 mM CaCl2 and 1.0 μM calmodulin. The reaction was started by the addition of enzymes. After appropriate incubation times (see Figure legends), reactions were stopped by the addition of 5 volumes of cold acetone to precipitate proteins. Dephosphorylation was monitored by immunoblotting with the phosphorylation-dependent antibodies described below.
(§3) Res. Commun. […] Antibody AT8 was used at a concentration of 2.0 μg/ml. […] The intensity of immunostaining of-some blots with Tau-1 was scanned by using a Shimadzu dual-wavelength flying-spot scanner.

Test [3] has as its system PP-2C. Put plainly: PP-2C activity with [32P]phosphorylase kinase as substrate. The test is classed as biochemical, bovine. The following applies: no activity detected in the absence of Mg2+ or Mn2+. The method, then:
(§4) For PP-2B and PP-2C activities, MnCl2 was substituted by 1.0 mM CaCl2 and 10 μM calmodulin, and 10 mM MgCl2, respectively.

Test [4] has as its system PP-1. Put plainly: PP-1 activity with [32P]phosphorylase kinase as substrate. In kind it is biochemical, rabbit. The following applies: 1.0 mM Mn2+ or 10 mM Mg2+. As to the method:
as §4

Test [5] deals with T3, PP-2A1 (Rattus norvegicus, UniProt P63331).
T3 construct: PP-2A1 and PP-2A2 were purified from rat brain basically as described by Cohen et al; tissue gift of Dr. S. Jaspers, University of Massachusetts; host or cells: rat brain
T3 sequence (P63331 whole entry): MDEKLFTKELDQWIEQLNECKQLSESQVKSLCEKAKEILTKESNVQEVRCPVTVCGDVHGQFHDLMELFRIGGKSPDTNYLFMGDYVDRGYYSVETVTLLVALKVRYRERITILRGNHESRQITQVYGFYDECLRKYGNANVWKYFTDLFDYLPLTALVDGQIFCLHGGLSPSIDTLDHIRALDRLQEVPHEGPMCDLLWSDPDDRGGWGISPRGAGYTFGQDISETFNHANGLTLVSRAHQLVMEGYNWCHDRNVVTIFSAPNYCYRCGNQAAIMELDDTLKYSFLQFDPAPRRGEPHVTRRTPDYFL
T3 sequence (Q5XI34 1-589 partner): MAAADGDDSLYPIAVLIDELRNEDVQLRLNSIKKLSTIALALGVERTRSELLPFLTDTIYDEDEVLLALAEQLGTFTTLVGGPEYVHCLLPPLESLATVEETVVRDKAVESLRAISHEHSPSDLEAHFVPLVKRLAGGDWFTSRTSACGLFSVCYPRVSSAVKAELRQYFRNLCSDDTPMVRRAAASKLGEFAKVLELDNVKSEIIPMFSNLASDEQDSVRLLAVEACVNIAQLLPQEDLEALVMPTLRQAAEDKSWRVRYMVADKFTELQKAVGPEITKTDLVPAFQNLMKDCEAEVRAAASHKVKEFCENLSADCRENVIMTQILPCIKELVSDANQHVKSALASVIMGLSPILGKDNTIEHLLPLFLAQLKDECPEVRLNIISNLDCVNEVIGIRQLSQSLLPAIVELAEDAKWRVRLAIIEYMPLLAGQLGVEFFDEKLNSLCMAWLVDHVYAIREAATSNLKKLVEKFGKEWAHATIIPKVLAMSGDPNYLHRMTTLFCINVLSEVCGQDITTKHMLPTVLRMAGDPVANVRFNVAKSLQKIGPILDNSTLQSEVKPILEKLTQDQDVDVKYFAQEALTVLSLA
T3 sequence (P36876 whole entry partner): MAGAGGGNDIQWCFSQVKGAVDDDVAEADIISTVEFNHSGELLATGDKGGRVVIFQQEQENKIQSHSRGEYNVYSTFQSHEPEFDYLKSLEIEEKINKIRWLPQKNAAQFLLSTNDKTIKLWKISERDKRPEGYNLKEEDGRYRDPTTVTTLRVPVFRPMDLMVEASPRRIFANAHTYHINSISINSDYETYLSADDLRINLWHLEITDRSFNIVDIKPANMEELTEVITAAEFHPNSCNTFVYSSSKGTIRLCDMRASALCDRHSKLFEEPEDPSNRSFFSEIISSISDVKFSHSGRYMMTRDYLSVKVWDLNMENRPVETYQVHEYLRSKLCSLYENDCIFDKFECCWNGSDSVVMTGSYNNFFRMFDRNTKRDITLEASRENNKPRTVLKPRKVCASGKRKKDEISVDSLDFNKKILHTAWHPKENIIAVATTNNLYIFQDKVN
Put plainly: Effect of Mn2+, Mg2+ and polylysine on dephosphorylation of AD P-tau by PP-2A1. In kind it is biochemical. Particulars: 2.0 mM MnCl2, 2.0 mM MgCl2 or 10 μM polylysine versus 1.0 mM EDTA; Tau-1 immunoblot.
Text: as §1, §2, §3

In test [6] the test system is PP-1. Briefly: Effect of effectors on dephosphorylation of AD P-tau by PP-1 (immunoblot). The test is classed as biochemical, rabbit. The following applies: for Effect on dephosphorylation of AD P-tau by PP-1: 1.0 mM Mn2+ or 10 mM Mg2+ versus 1.0 mM EDTA, PHF-1 immunoblot (Ser-396). The method, then:
Unless otherwise stated, dephosphorylation of AD P-tau was carried out at 30° C. in 50 mM Tris, pH 7.0, 10 mM β-mecaptoethanol, 0.1 mg/ml BSA, 50 μg/ml AD P-tau and PP-1, PP-2B or PP-2C. In some experiments, several effectors were added in the reaction mixture (see Results section). The reaction was started by addition of the enzyme. After appropriate incubation times (see Figure legends), reactions were stopped by addition of 5 volumes of cold acetone to precipitate proteins. The precipitated protein samples were dissolved in SDS-PAGE sample buffer (60 mM Tris-HCl, […], 3% SDS, 5% β-mercaptoethanol, 10% glycerol and 0.05% bromophenol blue) and heated at 95° C. for 4 min, followed by 10% SDS-PAGE.

Test [7] deals with T2, PP-2A2. The following applies: data not shown.
Test [8] concerns PP-2A. Put plainly: Effect of effectors on dephosphorylation of AD P-tau by PP-2A (immunoblot). The test is classed as biochemical, rat.
Text: as §1, §2, §3

For test [9], the target named is T3, PP-2A1. Put plainly: PP-2A1 activity with [32P]phosphorylase as substrate. In kind it is biochemical. Particulars: data not shown.

T2 sequence (P63331 whole entry): as the sequence (P63331 whole entry) above
T2 sequence (Q5XI34 1-589 partner): as the sequence (Q5XI34 1-589 partner) above

Take `[Ca+2]` [Ca^2+]: in test [1] (1.0 mM CaCl2 and 1.0 μM calmodulin, no other cation), the “Dephosphorylation of tau by PP-2B in the presence of Ca2+ and calmodulin alone” value was “no apparent dephosphorylation”.
For the compound `[Mg+2]` [Mg^2+, reference compound], the “Effect on activity of PP-2A2 towards AD P-tau” value in test [2] was “no detectable effect”. Besides, the “Metal dependence of PP-2C activity with [32P]phosphorylase kinase as substrate” value in test [3] is reported as “dependent”. For the same compound, the “Effect on PP-1 activity with [32P]phosphorylase kinase as substrate” value in test [4] is recorded as “inhibited”. The “Activity of PP-2B towards AD P-tau with divalent cation in the presence of Ca2+ and calmodulin” value (shortened to “Activity of PP-2B towards AD P-tau”) in test [1] was “lower”. Also, the “Effect on activity of PP-2A1 towards AD P-tau” value in [5] was “no detectable effect”. Besides, the “Effect on dephosphorylation of AD P-tau by PP-1” value in [6] was “inhibited”.
In the case of `[Mn+2]` [Mn^2+, manganese], the “Effect on activity of PP-2A2 towards AD P-tau” value in test [2] is recorded as “markedly stimulated”. Also, the “Metal dependence of PP-2C activity with [32P]phosphorylase kinase as substrate” value in test [3] was “dependent”. Besides, in test [4], the “Effect on PP-1 activity with [32P]phosphorylase kinase as substrate” value is on record as “activated”. Besides, in test [1], the “Effect on AD P-tau dephosphorylation by PP-2B” value is “↑ ↑”; the “Activity of PP-2B towards AD P-tau” value is recorded as “lower”; the “Magnitude of dephosphorylation of AD P-tau by PP-2B with the cation alone compared to inclusion of Ca2+ and calmodulin” value is given as “lower”; the “Concentration of metal ion for maximal dephosphorylation of AD P-tau by PP-2B” value came out at 100 µM. In [1], the “Concentration of metal ion that activated the dephosphorylation of AD P-tau by PP-2B” value was found to be 10 FM. Further, in test [5], the “Effect on activity of PP-2A1 towards AD P-tau” value was “markedly stimulated”. In test [7], the “Effect on PP-2A2 activity with [32P]phosphorylase as substrate” value was “stimulated PP-2A2 much more strongly than polylysine did”. In addition, in test [6], the “Effect on AD P-tau dephosphorylation by PP-1” value is listed as “↑ ↑” and the “Effect on dephosphorylation of AD P-tau by PP-1” value is on record as “strongly activated”. In test [6] (data not shown), the “Concentration at which activation of AD P-tau dephosphorylation by PP-1 reached maximum” value is listed as “about 100 μM” and the “Concentration at which activation of AD P-tau dephosphorylation by PP-1 was observed” value came to 10 µM. In addition, the “Effect on AD P-tau dephosphorylation by PP-2A” value in test [8] was “↑ ↑”. The “Effect on PP-2A1 activity with [32P]phosphorylase as substrate” value in test [9] was “almost no effect”.
Consider `[Ni+2]` [Ni^2+], for which, in test [1], the “Effect on AD P-tau dephosphorylation by PP-2B” value was “↑ ↑”; the “Activity of PP-2B towards AD P-tau” value is listed as “highest activity”; the “Magnitude of dephosphorylation of AD P-tau by PP-2B with the cation alone compared to inclusion of Ca2+ and calmodulin” value was “lower”; the “Concentration of metal ion for maximal dephosphorylation of AD P-tau by PP-2B” value turned out to be 100 µM. Besides, in test [1], the “Concentration of metal ion that activated the dephosphorylation of AD P-tau by PP-2B” value came out at 10 FM.
On to `C=C1[C@@H](O)[C@@H]2O[C@]3(CC[C@H](/C=C/[C@@H](C)[C@@H]4CC(C)=C[C@@]5(O[C@H](C[C@@](C)(O)C(=O)O)CC[C@H]5O)O4)O3)CC[C@H]2O[C@@H]1[C@@H](O)C[C@H](C)[C@H]1O[C@@]2(CCCCO2)CC[C@H]1C` [okadaic acid, reference compound], for which the “Unmasking of Tau-1 epitope of AD P-tau by PP-2A in the presence of the inhibitor” value in test [8] (1.0 μM okadaic acid, 5.0 U/ml PP-2A2, 30° C., 60 min) is given as “did not unmask Tau-1 epitope”.
Turning to poly-L-lysine [Polylysine], the “Effect on activity of PP-2A2 towards AD P-tau” value in test [2] is “only slightly activated”. The “Effect on activity of PP-2A1 towards AD P-tau” value in test [5] is listed as “strongly activated”. The “Effect on PP-2A1 activity with [32P]phosphorylase as substrate” value in test [9] is “slightly stimulated”.
